Experimental data as given in patent publication US5726302A, “Water soluble adenosine kinase inhibitors” (Gensia Inc., priority 1995, dated 1998).
Where two headings read alike, the source gives them in different places. Each block holds one compound with its values, some of them ahead of it.

How the values were obtained:
Rats = assay: Anti-inflammatory activity, carrageenan paw; type: in vivo, rat; details: 10 mg/kg, swelling after 3 hours
Description: Carrageenan (Type λ) was suspended in sterile PBS at 1% (w/v), autoclaved for 30 minutes, and stored at room temperature. Rats were pretreated with vehicle or AK inhibitor (10 mg/kg) by oral gavage or i.p. administration and the volume of the left hind paw was measured using a water displacement plethysmometer (Stoelting Co., Wood Dale, Ill.). One hour after oral treatment or 30 minutes after i.p. treatment, the rats were briefly anesthetized, and 0.1 ml of the carrageenan solution was injected subcutaneously into the planar surface of the left hind paw. The ensuing paw swelling was measured by plethysmometry after 3 hours. The paw volume in millileters was subtracted from the pre-injection paw volume. Data are presented as the percent inhibition of paw swelling in AK inhibitor treated animals, compared to vehicle treated control animals.

[1] = molecular target: partially purified pig heart adenosine kinase (Sus scrofa, UniProt A0A5G2R0F5); assay: biochemical
Description: Adenosine kinase activity was measured essentially as described by Yamada et al Biochim. Biophys. Acta 660, 36-43 (1988) with a few minor modifications. Assay mixtures contained 50 mM TRIS-maleate buffer, pH 7.0, 0.1% BSA, 1 mM ATP 1 mM MgCl2, 0.5 μM [U-^14 C] adenosine (400-600 mCi/mmol) and varying duplicate concentrations of inhibitor. The reactions were initiated by addition of approximately 0.1 μU partially purified pig heart adenosine kinase, where one unit is defined as that amount of enzyme required to phosphorylate 1 μmol adenosine per minute. The reactions were incubated for 20 minutes at 37° C. The assay was quenched upon spotting 30 μL aliquots onto 2 cm^2 pieces of Whatman DE81 anion exchange paper. The paper squares were washed for 3 minutes in 6 L distilled/deionized water to remove the unreacted adenosine. […] The amount of ^14 C-AMP was quantified by scintillation counting.

mice [2] = assay: HPLC analysis of plasma for metabolism in mice after oral administration; type: in vivo; details: 10 mg/kg
rat cardiomyocytes = details: inhibition of adenosine deaminase alone; cited from earlier work
male SA rats [3] = assay: Analgesic activity, tail flick; type: in vivo; details: Rattus norvegicus, ip
Water solubility = type: physicochemical; details: deionized water (DI)
Description: The sample was sonicated for a period of up to 20 minutes. If a solution was not obtained, further solvent was added and the process was repeated until a clear solution was obtained, and the results were recorded. Solutions used were 50 mM potassium biphthalate (pH 4); 100 mM glycine (pH 9); 25 mM sodium carbonate and 25 mM sodium bicarbonate (pH 10); or deionized water (DI).

male SA rats [4] = assay: Anticonvulsant activity, maximal electroshock (MES) model; type: in vivo; details: Rattus norvegicus, 1 h; po; one hour after dosing, fasted
Description: The anticonvulsant activity of the tested compounds was evaluated in male SA rats (100-150 g, Simonsen) using the maximal electroshock (MES) model described in Swinyard et al., Antiepileptic Drugs, 3d Ed. at 85-102 (Levy, et al., eds.), N.Y.: Raven Press (1989). The rats were maintained on a 12/12 light/dark cycle in temperature controlled facilities with free access to food and water. For p.o. administration, the animals are fasted overnight, prior to the experiment. One hour prior to seizure testing, the animals were injected interperitoneally (ip) or orally (per os, […]) with one of various doses of test compound dissolved in DMSO or PEG 400.
This endpoint was expressed as the percentage of animals in which the response was inhibited.

male SA rats [5] = assay: Analgesic activity, hot plate; type: in vivo; details: Rattus norvegicus, ip
[6] = tested on: isolated guinea pig hearts; details: in the absence of ADA inhibition; cited from earlier work
adenosine kinase = details: read-out: Ki, inhibition of adenosine kinase; cited from earlier work
mice [7] = details: cited from earlier work
isolated rat hearts = details: alone, cited from earlier work
anesthetized rats = details: cited from earlier work
ischemic cerebral injury = details: Phillis et al.; cited from earlier work
dog hearts = details: in vivo; cited from earlier work
[8] = ip, 30 minutes before carrageenan
[9] = po, one hour before carrageenan

partially purified pig heart adenosine kinase, sequence (A0A5G2R0F5 1-362): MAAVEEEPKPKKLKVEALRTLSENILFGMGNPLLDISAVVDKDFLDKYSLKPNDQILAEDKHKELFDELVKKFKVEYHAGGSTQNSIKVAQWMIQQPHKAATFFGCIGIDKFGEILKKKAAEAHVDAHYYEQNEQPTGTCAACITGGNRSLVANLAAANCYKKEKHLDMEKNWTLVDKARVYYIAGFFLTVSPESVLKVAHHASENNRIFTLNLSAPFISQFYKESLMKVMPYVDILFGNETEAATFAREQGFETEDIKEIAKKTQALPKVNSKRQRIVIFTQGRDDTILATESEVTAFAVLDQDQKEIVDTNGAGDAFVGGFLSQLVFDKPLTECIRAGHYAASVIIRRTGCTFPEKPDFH

- AK inhibition in vitro ([1]; in vitro): weak AK inhibitor in vitro
- IC50 ([1]; pig heart adenosine kinase, 0.5 μM adenosine, pH 7.0, 20 minutes at 37° C, read-out: AK Inhibition (IC50)): 10 µM
- metabolism in mice shown by HPLC analysis of plasma (mice [2]): generate a potent AK inhibitor
SMILES: C[C@H]1O[C@@H](n2cc(I)c3c(NCCc4ccccn4)ncnc32)[C@H](O)[C@@H]1O [Compound 43, 4-N-(2-(2-pyridylethyl)amino)-5-iodo-7-(5-deoxy-1-β-D-ribofuranosyl)pyrrolo[2,3-d]pyrimidine]
- Carrageenan Paw (% inhibition) of paw swelling (Rats; [8]): 58.6%
- Carrageenan Paw (% inhibition) of paw swelling (Rats; [9]): 69.7%

SMILES: OC[C@H]1O[C@@H](n2cnc3c2N=CNC[C@H]3O)C[C@@H]1O [2'-deoxycoformycin]
- effect on adenosine release from the cells (rat cardiomyocytes): no effect on adenosine release

- solubility (Water solubility): > 5000 µg/mL
SMILES: C[C@H]1O[C@@H](n2cc(-c3ccccc3)c3c(Nc4ccc(CN(C)C)cc4)ncnc32)[C@H](O)[C@@H]1O [Compound 1, 4-N(N,N-Dimethylaminomethylphenyl)amino-5-phenyl-7-(5-deoxy-β-D-ribofuranosyl)pyrrolo[2,,3-d]pyrimidine]
- Carrageenan Paw (% inhibition) of paw swelling (Rats; [8]): 26.0%
- Carrageenan Paw (% inhibition) of paw swelling (Rats; [9]): 19.2%
- ED50 (male SA rats [3]): 15 mg/kg
- ED50 (male SA rats [4]): > 20 mg/kg
- ED50 (male SA rats [5]): 15.2 mg/kg

SMILES: NC[C@H]1O[C@@H](n2cnc3c(N)ncnc32)[C@H](O)[C@@H]1O [5'-amino-5'-deoxyadenosine]
- increase of adenosine release [6]: not apparent in the absence of ADA inhibition
- Ki (adenosine kinase): < 0.1 µM

SMILES: Nc1ncnc2c1c(I)cn2[C@@H]1O[C@H](CO)[C@@H](O)[C@H]1O [5-iodotubercidin]
- general flaccidity (skeletal muscle relaxation) (mice [7]): pronounced general flaccidity
- hypothermia (mice [7]): hypothermia
- spontaneous locomotor activity (mice [7]): much-reduced spontaneous locomotor activity
- increase in perfusate adenosine concentration (isolated rat hearts; hypoxic, anoxic or ischemic conditions): no increase in perfusate adenosine concentration
- increase in perfusate adenosine concentration (isolated rat hearts; normoxic conditions): no increase in perfusate adenosine concentration
- blood pressure (anesthetized rats): decrease blood pressure
- heart rate (anesthetized rats): decrease blood pressure and heart rate
- protection against ischemic cerebral injury (ischemic cerebral injury): apparently does not protect against ischemic cerebral injury
- effects in dog hearts subjected to ischemia and reperfusion (dog hearts): inconsistent effects

SMILES: OC[C@H]1O[C@@H](n2cnc3c(NCCCCCCCCCCCCNc4ncnc5c4ncn5[C@@H]4O[C@H](CO)[C@@H](O)[C@H]4O)ncnc32)[C@H](O)[C@@H]1O [1,12-bis(adenosin-N^6-yl)dodecane]
- Ki (adenosine kinase): < 0.1 µM
